Laboratory results published in PubChem BioAssay (NCI).
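Growth conditions: 96-well plates. Treatment: test compound, 48 hours, 5 concentrations. Analysis: linear interpolation between bracketing concentrations; unreached endpoints set to highest concentration. TGI is the concentration that stops growth completely.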

Assays:
Assay in all cases: NCI-60 cell line screen, 48 h
786-0 renal = test system: 786-0 renal
A498 renal = test system: A498 renal
A549 NSCLC = test system: A549 NSCLC
ACHN renal = test system: ACHN renal
CAKI-1 renal = test system: CAKI-1 renal
CCRF-CEM leukemia = test system: CCRF-CEM leukemia
COLO 205 colon = test system: COLO 205 colon
DU-145 prostate = test system: DU-145 prostate
EKVX NSCLC = test system: EKVX NSCLC
HCC-2998 colon = test system: HCC-2998 colon
HCT-116 colon = test system: HCT-116 colon
HCT-15 colon = test system: HCT-15 colon
HL-60(TB) leukemia = test system: HL-60(TB) leukemia
HOP-62 NSCLC = test system: HOP-62 NSCLC
HOP-92 NSCLC = test system: HOP-92 NSCLC
HS 578T breast = test system: HS 578T breast
HT29 colon = test system: HT29 colon
IGROV1 ovarian = test system: IGROV1 ovarian
K-562 leukemia = test system: K-562 leukemia
KM12 colon = test system: KM12 colon
LOX IMVI melanoma = test system: LOX IMVI melanoma
M14 melanoma = test system: M14 melanoma
MALME-3M melanoma = test system: MALME-3M melanoma
MCF7 breast = test system: MCF7 breast
MDA-MB-231 breast = test system: MDA-MB-231 breast
MDA-MB-435 = test system: MDA-MB-435
MDA-N = test system: MDA-N
MOLT-4 leukemia = test system: MOLT-4 leukemia
NCI-H226 lung = test system: NCI-H226 lung
NCI-H23 lung = test system: NCI-H23 lung
NCI-H460 lung = test system: NCI-H460 lung
NCI-H522 lung = test system: NCI-H522 lung
NCI/ADR-RES ovarian = test system: NCI/ADR-RES ovarian
OVCAR-3 ovarian = test system: OVCAR-3 ovarian
OVCAR-4 ovarian = test system: OVCAR-4 ovarian
OVCAR-8 ovarian = test system: OVCAR-8 ovarian
PC-3 prostate = test system: PC-3 prostate
RPMI-8226 leukemia = test system: RPMI-8226 leukemia
RXF 393 renal = test system: RXF 393 renal
SF-268 CNS = test system: SF-268 CNS
SF-295 CNS = test system: SF-295 CNS
SF-539 CNS = test system: SF-539 CNS
SK-MEL-2 melanoma = test system: SK-MEL-2 melanoma
SK-MEL-28 melanoma = test system: SK-MEL-28 melanoma
SK-MEL-5 melanoma = test system: SK-MEL-5 melanoma
SK-OV-3 ovarian = test system: SK-OV-3 ovarian
SN12C renal = test system: SN12C renal
SNB-19 CNS = test system: SNB-19 CNS
SNB-75 CNS = test system: SNB-75 CNS
SR leukemia = test system: SR leukemia
SW-620 colon = test system: SW-620 colon
T-47D breast = test system: T-47D breast
TK-10 renal = test system: TK-10 renal
U251 CNS = test system: U251 CNS
UACC-257 melanoma = test system: UACC-257 melanoma
UACC-62 melanoma = test system: UACC-62 melanoma
UO-31 renal = test system: UO-31 renal

Measured: TGI

OC(C/C=N/N=C/CC(O)(C(F)(F)Cl)C(F)(F)Cl)(C(F)(F)Cl)C(F)(F)Cl
> 10 µM: 786-0 renal | A498 renal | A549 NSCLC | ACHN renal | CAKI-1 renal | CCRF-CEM leukemia | COLO 205 colon | DU-145 prostate | EKVX NSCLC | HCC-2998 colon | HCT-116 colon | HCT-15 colon | HL-60(TB) leukemia | HOP-62 NSCLC | HOP-92 NSCLC | HS 578T breast | HT29 colon | IGROV1 ovarian | K-562 leukemia | KM12 colon | LOX IMVI melanoma | M14 melanoma | MALME-3M melanoma | MCF7 breast | MDA-MB-231 breast | MDA-MB-435 | MDA-N | MOLT-4 leukemia | NCI-H226 lung | NCI-H23 lung | NCI-H460 lung | NCI-H522 lung | NCI/ADR-RES ovarian | OVCAR-3 ovarian | OVCAR-4 ovarian | OVCAR-8 ovarian | PC-3 prostate | RPMI-8226 leukemia | RXF 393 renal | SF-268 CNS | SF-295 CNS | SF-539 CNS | SK-MEL-2 melanoma | SK-MEL-28 melanoma | SK-MEL-5 melanoma | SK-OV-3 ovarian | SN12C renal | SNB-19 CNS | SNB-75 CNS | SR leukemia | SW-620 colon | T-47D breast | TK-10 renal | U251 CNS | UACC-257 melanoma | UACC-62 melanoma | UO-31 renal
